Data taken from US20110003321A1, “Monitoring of Intercellular Mitochondorial Polarization” (Kyushu University National University Corporation, priority 2005, published 2011).

Assays:
Assay type in all cases: cell-based
[1] = system: Human pancreas cancer cells MIA PaCa-2; experiment: Survival rate by counting the number of cells (trypan blue, standard method), combined use of agents; conditions: 25 μM each agent; 48 hours after medium replacement; FIG. 12
Experimental: The effect of combined use of plural agents was evaluated by a method including co-culturing a test agent with the cells, and counting the number of reduced cells by apoptosis. Human pancreas cancer cells MIA PaCa-2 were used as the test cells. A cell suspension of 5×10^4 cells/mL was prepared with the use of EMEM (Eagles' minimum essential medium) containing 10% (v/v) FBS, 50 units/mL penicillin, 50 μg/mL streptomycin, and 100 μM nonessential amino acid, and 5 mL of the cell suspension was poured into each 6-cm petri dish and pre-cultured at 37° C. with the CO2 concentration of 5%. After 24 hours, either a replacement with new 5 mL EMEM (DMSO used as the solvent of the phenol component was contained at the final concentration of 0.1% (v/v)) containing 25 μM quercetin, 25 μM trans-resveratrol, or both 25 μM quercetin and 25 μM trans-resveratrol in addition to the medium, or a replacement with 5 mL EMEM containing only 0.1% (v/v) DMSO as a control was carried out, and then culturing was carried out. Forty eight hours after the medium was replaced, trypan blue staining was carried out, and then the number of cells was counted with a hemocytometer. Comparison was carried out for the respective conditions, with 100 representing the number of cells in the control.

[2] = system: Human pancreas cancer cells MIA PaCa-2; experiment: Measurement of SPR angle, agents alone or in combination; conditions: 25 μM each agent; 50 minutes after the administration; FIG. 13
Experimental: SPR angles were measured with the above-described SPR sensor (tilting sensor) at the temperature of 37.0° C. Likewise in the measurement of the survival rate, a cell suspension of 2×10^6 cell/mL was prepared, and 100 μL of the cell suspension was dropped onto a gold plate for SPR measurement and cultured for 20 hours at 37° C. with the CO2 concentration of 5%. After 20 hours, the plate was placed on the prism of the SPR sensor, and on the plate was filled 5 mL EMEM. Then, measurement was started. Ten minutes after the measurement was started, either a replacement with new 5 mL EMEM (DMSO used as the solvent of the phenol component was contained at a final concentration of 0.1% (v/v)) containing 25 μM quercetin, 25 μM trans-resveratrol, or both 25 μM quercetin and 25 μM trans-resveratrol, or a replacement with 5 mL EMEM containing only 0.1% (v/v) DMSO as a control was carried out, and then the measurement of the changes in SPR angle was continued for another 50 minutes.

[3] = system: Human liver cancer cells HepG-2; experiment: Monitoring mitochondrial polarized state using fluorescent reagent JC-1 (HepG-2); conditions: fenofibrate medium; especially about 20 minutes after the reagent was added; FIG. 3
Experimental: The fluorescent microscopic observation was carried out with the use of Axioplan 2 (Carl Zeiss) as a microscope, a 75-W xenon lamp as a light source, and NTE/CCD Detector MicroMAX-512BFT (Princeton Instruments) as a detector. Images were obtained and analyzed with the use of fluorescence analysis software, MetaFluor Imaging System Ver. 4.65 (Universal Imaging).
(§1) Human liver cancer cells HepG-2 were used as test cells. A liquid medium EMEM containing 100 μM nonessential amino acid, 50 units/mL penicillin, 50 μg/mL streptomycin, and 10% (v/v) FBS was prepared, at 37° C. with a CO2 concentration of 5%, to be used as a complete medium, and the cells were pre-cultured in the complete medium and then used in the testing. Fenofibrate (2-[4-(4-Chlorobenzoyl)phenoxy]-2-methylpropanoic acid isopropyl ester) was used as a lipid metabolism promoting agent. Lipid metabolism activity was evaluated at the time when 25 μM fenofibrate was added and at the time when 50 μM fenofibrate was added. […]
Following pre-culture, the test cells were removed from the petri dish, and the concentration of the test cells in the complete medium was adjusted to 2×10^6 cell/mL. […] To detect fluorescence, a set of filters that transmitted 515-565 nm and a set of filters that transmitted 575-640 nm were used. […]

[4] = system: Human liver cancer cells HepG-2; experiment: Evaluation of lipid metabolism activity using SPR; conditions: 25 μM and 50 μM fenofibrate; especially about 20 minutes after the reagent was added; FIG. 2
Experimental: Measurement of SPR signals and fluorescent microscopic observation were carried out using a device having a fluorescent microscope located above living cells, which cells are a target of the measurement, and an SPR sensor located under the living cells. […] An optical system of Kretschmann configuration was used as an SPR sensor. BK7 (with a refractive index of 1.51) was used as a prism. A semiconductor laser (with a wavelength of 670 nm, an output of 3 mW, and a beam diameter of 1 mm) was used as a light source. A silicon photodiode detector was used as a detector. The measurement was carried out in the atmosphere (with 20% O2 and 0.035% CO2), unless otherwise stated.
as §1

SMILES | survival rate (number of cells, control = 100) [1] | change in SPR angle [2] | fluorescence intensity (JC-1) resulting from mitochondrial polarization due to activation of lipid metabolism [3] | changes in SPR signals resulting from mitochondrial polarization due to activation of lipid metabolism [4]
Oc1ccc(/C=C/c2cc(O)cc(O)c2)cc1 [trans-resveratrol] | 56.2% | approximately 0.05 degrees |  | 
O=c1c(O)c(-c2ccc(O)c(O)c2)oc2cc(O)cc(O)c12 [quercetin, Quercetin] | 76.1% | approximately 0.05 degrees |  | 
CC(C)OC(=O)C(C)(C)Oc1ccc(C(=O)c2ccc(Cl)cc2)cc1 [fenofibrate, 2-[4-(4-Chlorobenzoyl)phenoxy]-2-methylpropanoic acid isopropyl ester] |  |  | increase in fluorescence intensity | changes (−) were observed in the SPR signals
